Results from patent US20090023773A1, “COMPOSITIONS AND METHODS FOR MODULATING GATED ION CHANNELS” (PainCeptor Pharma Corporation, priority 2007, published 2009).

Biological target: T1, hASIC1a (Homo sapiens, UniProt P78348)
T1 construct: expressed in transfected cells
T1 sequence (P78348 1-528): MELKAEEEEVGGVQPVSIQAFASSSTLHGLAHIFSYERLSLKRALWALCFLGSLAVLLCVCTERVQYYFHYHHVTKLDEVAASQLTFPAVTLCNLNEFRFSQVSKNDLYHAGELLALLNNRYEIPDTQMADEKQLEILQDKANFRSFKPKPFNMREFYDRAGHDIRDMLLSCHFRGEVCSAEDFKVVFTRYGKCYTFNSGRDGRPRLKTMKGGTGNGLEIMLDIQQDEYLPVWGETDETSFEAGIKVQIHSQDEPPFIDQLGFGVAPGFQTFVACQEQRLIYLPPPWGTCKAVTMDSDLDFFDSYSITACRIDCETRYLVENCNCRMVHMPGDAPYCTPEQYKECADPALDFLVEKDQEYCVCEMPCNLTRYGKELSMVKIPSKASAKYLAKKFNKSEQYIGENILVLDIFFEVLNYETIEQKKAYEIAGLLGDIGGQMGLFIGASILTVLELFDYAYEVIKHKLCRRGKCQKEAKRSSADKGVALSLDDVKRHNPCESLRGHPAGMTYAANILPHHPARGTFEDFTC
Assay: Fluorescent calcium dye (Fluo-4-NW) assay in cells expressing hASIC1a (Example 1)
Assay type: cell-based
Settings: CHO cells stably expressing hASIC1a, mild acidic buffer, increasing concentrations; FIGS. 1A-1C
Procedure: ASIC1a expressing CHO cells are grown in culture medium (DMEM with 10% FBS), in polystyrene culture flasks ([…]) at 37° C. in a humidified atmosphere of 5% CO2. Confluency of cells should be 70-90% on day of plating. Cells are rinsed with 10 ml of PBS and cells are re-suspended by addition of culture medium and trituration with a 25 ml pipette. The cells are seeded at a density of approximately 10^4 cells/ml (50 μl/well and then brought to a total volume of 150 μl/well with culture medium, following 30 minutes incubation) in black-walled, clear bottom, 96-well plates pre-treated with poly-D-lysine (from BD Bioscience). Plated cells were allowed to proliferate for 48-72 h before loading with dye. Fluo-4-NW (500 μg, DiscoveRX) is dissolved in 110 μl DMSO. The Fluo-4-NW stock solution (1000×) is diluted with the assay buffer. A water soluble stock solution (100×) of probenicid (DiscoveRX) and a stock solution (1000×) of pluronic acid (P-127, Molecular Probes) are also added in the loading buffer containing Fluo-4NW dye. The culture medium is aspirated from the wells, and 100 μl of the Fluo-4-NW loading solution is added to each well. The cells are incubated at 37° C. for 30 min. followed by 30 min. incubation at room temperature. The assay buffer contains 90 mM NaCl, 5 mM KCl, 4 mM CaCl2, 0.8 mM MgSO4, 50 mM NMDG, 5 mM Glucose-D, 10 mM HEPES, pH 7.4. After the loading time, the loading buffer is not removed and the fluorescence is measured in FlexStation™ (Molecular Devices, USA), or any other suitable equipment known to the skilled in the art. Temperature: 25° C. First addition: 50 μl test solution at a rate of 26 μl/sec and a starting height of 125 μl. […] Reading intervals: pre-incubation—120 sec. antagonist phase, addition of MES at 145 sec. and reading time with agonist 100 sec (total run time of 240 sec.). Fluorescence obtained after stimulation is corrected for the mean basal fluorescence (in modified Assay Buffer). […] Gated-channel activity was determined by measuring intracellular calcium variation using a fluorescent calcium dye (Fluo-4-NW).

Compound: Cc1cc(OC2CCN(Cc3ccccc3)CC2)c2cc(O)ccc2n1 [Compound 13, 4-(1-benzylpiperidin-4-yloxy)-2-methylquinolin-6-ol]
- inhibition of acid-induced hASIC1a activity (intracellular calcium variation): dose-dependently inhibited
